{
  "source": "patent US9889109B2",
  "about": "“Pharmaceutical composition comprising benzyl alcohol for the treatment of migraines” (St. Renatus, LLC, priority 2012, dated 2018)",
  "origin": "cited, not measured here",
  "data": [
    {"compound": "CCCCNc1ccc(C(=O)OCCN(C)C)cc1", "note": "[tetracaine, 2-(dimethylamino)ethyl 4-(butylamino)benzoate]", "values": [
      {"measurement": "pKa", "value": "approximately 8.4"},
      {"measurement": "unionized molecules", "setting": "pH 7.4", "value": "1-2%"}
    ]}
  ]
}
